In patent US20250032485A1, “APPLICATION OF IMIDAZO [1,2-A] PYRAZINE COMPOUNDS OR THEIR PHARMACEUTICALLY ACCEPTABLE SALTS IN THE PREPARATION OF ANTI-CORONAVIRUS DRUGS” (GUANGZHOU MEDICAL UNIVERSITY, priority 2023, published 2025):

Molecular target: PLpro of SARS-CoV-2 (Severe acute respiratory syndrome coronavirus 2, UniProt P0DTD1)
Assay: Enzyme activity test in vitro: inhibition of PLpro at fixed concentration 50 μM (RLRGG-AMC substrate)
Type: biochemical
Conditions: read-out: Inhibition rate at 50 μM (%)

Row | Structure (SMILES) | inhibition at 50 µM
1 | COc1ccc(-c2nc3cnccn3c2Nc2ccc(C(=O)N3CCOCC3)cc2)cc1OC [P22470, [4-[[2-(3,4-dimethoxy-phenyl)imidazo[1,2-a]pyrazin-3-yl]amino]phenyl]-morpholin-4-ylmethanone] | 32.1%
2 | CCc1cccc(C)c1Nc1c(-c2ccc(NC(C)=O)cc2)nc2cnccn12 [P22513, N-[4-[3-(2-ethyl-6-methylanilino)imidazo [1,2-a]pyrazin-2-yl]phenyl]acetamide] | 21.9%
3 | COc1ccc(-c2nc3cnccn3c2Nc2ccc(C(=O)NC(C)C)cc2)cc1OC [P22420, 4-[[2-(3,4-dimethoxy-phenyl)imidazo[1,2-a]pyrazin-3-yl]amino]-N-propan-2-ylbenzamide] | 43.9%
4 | Cc1ccc(-c2nc3cnccn3c2Nc2ccc(C(=O)NCCN(C)C)cc2)cc1 [P22453, N-[2-(dimethylamino)ethyl]-4-[[2-(4-methylphenyl)imidazo [1,2-a]pyrazin-3-yl]amino]benzamide] | 36.6%
5 | COC(=O)c1cccc(Nc2c(-c3ccc(O)c(OC)c3)nc3cnccn23)c1 [P19505, methyl 3-[[2-(4-hydroxy-3-methoxyphenyl)imidazo [1,2-a]pyrazin-3-yl]amino]benzoate] | 44.7%
6 | CCNC(=O)c1ccc(Nc2c(-c3ccccc3)nc3cnccn23)cc1 [P22461, N-ethyl-4-[(2-phenyl-imidazo[1,2-a]pyrazin-3-yl)amino] benzamide] | 32.3%
7 | O=C(NCC1CCCO1)c1ccc(Nc2c(-c3ccccc3)nc3cnccn23)cc1 (stereo not shown) [P22463, N-(oxolan-2-ylmethyl)-4-[(2-phenylimidazo [1,2-a]pyrazin-3-yl)amino]benzamide] | 25.8%
8 | COc1ccc(-c2nc3cnccn3c2Nc2cccc(C(=O)O)c2)cc1 [P19486, 3-[[2-(4-methoxy-phenyl)imidazo[1,2-a]pyrazin-3-yl]amino] benzoic acid] | 40.1%
9 | CCOC(=O)c1ccc(Nc2c(-c3ccc(N(C)C)cc3)nc3cnccn23)cc1 [P22502, ethyl 4-[[2-[4-(dimethyl-amino)phenyl]imidazo [1,2-a]pyrazin-3-yl]amino]benzoate] | 14.4%
10 | O=C(c1cccc(Nc2c(-c3ccccc3)nc3cnccn23)c1)N1CCCCC1 [P22458, [3-[(2-phenylimidazo [1,2-a]pyrazin-3-yl)amino]phenyl]-piperidin-1-ylmethanone] | 35.5%
11 | COC(=O)c1ccc(-c2nc3cnccn3c2Nc2cccc(C(F)(F)F)c2)cc1 [P37317, methyl 4-[3-[3-(trifluoro-methyl)anilino]imidazo [1,2-a]pyrazin-2-yl]benzoate] | 27.6%
12 | CN(C)c1ccc(-c2nc3cnccn3c2Nc2ccc(C(=O)O)cc2)cc1 [P19475, 4-[[2-[4-(dimethyl-amino)phenyl]imidazo [1,2-a]pyrazin-3-yl]amino]benzoic acid] | 35.1%
13 | CCOC(=O)c1ccc(Nc2c(-c3ccc(N4CCOCC4)cc3)nc3cnccn23)cc1 [P24803, ethyl 4-[[2-(4-morpholin-4-ylphenyl)imidazo [1,2-a]pyrazin-3-yl]amino]benzoate] | 24.7%
14 | CCNC(=O)c1ccc(Nc2c(-c3ccc(C)cc3)nc3cnccn23)cc1 [P22412, N-ethyl-4-[[2-(4-methylphenyl)imidazo [1,2-a]pyrazin-3-yl]amino]benzamide] | 33.5%
15 | COc1ccc(-c2nc3cnccn3c2Nc2ccc(C(=O)NCC3CCCO3)cc2)cc1OC (stereo not shown) [P22440, 4-[[2-(3,4-dimethoxy-phenyl)imidazo[1,2-a]pyrazin-3-yl]amino]-N-(oxolan-2-ylmethyl)benzamide] | 33.5%
16 | COC(=O)c1cccc(Nc2c(-c3ccccc3)nc3cnccn23)c1 [P19476, methyl 3-[(2-phenylimidazo [1,2-a]pyrazin-3-yl)amino]benzoate] | 34%
17 | O=C(O)c1cccc(Nc2c(-c3cccc(Cl)c3)nc3cnccn23)c1 [P19457, 3-[[2-(3-chlorophenyl)imidazo[1,2-a]pyrazin-3-yl]amino] benzoic acid] | 39.7%
18 | COc1ccc(-c2nc3cnccn3c2Nc2ccc(C(=O)N3CCCCC3)cc2)cc1OC [P22460, [4-[[2-(3,4-dimethoxy-phenyl)imidazo[1,2-a]pyrazin-3-yl]amino]phenyl]-piperidin-1-ylmethanone] | 31.8%
19 | CCOC(=O)c1ccc(Nc2c(-c3ccc(OC)cc3)nc3cnccn23)cc1 [P22531, ethyl 4-[[2-(4-methoxy-phenyl)imidazo[1,2-a]pyrazin-3-yl]amino] benzoate] | 31.9%
20 | O=C(NCc1ccco1)c1ccc(Nc2c(-c3ccccc3)nc3cnccn23)cc1 [P22435, N-(furan-2-ylmethyl)-4-[(2-phenylimidazo [1,2-a]pyrazin-3-yl)amino]benzamide] | 23.9%
21 | CCOC(=O)c1ccc(Nc2c(-c3cccc(Br)c3)nc3cnccn23)cc1 [P22532, ethyl 4-[[2-(3-bromophenyl)imidazo[1,2-a]pyrazin-3-yl]amino] benzoate] | 24.2%
22 | COc1ccc(-c2nc3cnccn3c2Nc2ccc(C(=O)N3CCCCC3)cc2)cc1 [P22454, [4-[[2-(4-methoxy-phenyl)imidazo[1,2-a]pyrazin-3-yl]amino]phenyl]-piperidin-1-ylmethanone] | 31.8%

Row | Structure (SMILES) | inhibition at 50 µM
23 | COC(=O)c1ccc(-c2nc3cnccn3c2Nc2c(C)cccc2C)cc1 [P37307, methyl 4-[3-(2,6-dimethyl-anilino)imidazo[1,2-a]pyrazin-2-yl] benzoate] | 43.4%
24 | COc1ccc(-c2nc3cnccn3c2Nc2cccc(C(=O)NCCN3CCOCC3)c2)cc1 [P22437, 3-[[2-(4-methoxy-phenyl)imidazo[1,2-a]pyrazin-3-yl]amino]-N-(2-morpholin-4-ylethyl)benzamide] | 24.2%
25 | O=C(O)c1cccc(Nc2c(-c3cc(Br)ccc3O)nc3cnccn23)c1 [P19487, 3-[[2-(5-bromo-2-hydroxyphenyl)imidazo [1,2-a]pyrazin-3-yl]amino]benzoic acid] | 27.3%
26 | CCOC(=O)c1ccc(Nc2c(-c3cc(Br)ccc3O)nc3cnccn23)cc1 [P22542, ethyl 4-[[2-(5-bromo-2-hydroxyphenyl)imidazo [1,2-a]pyrazin-3-yl]amino]benzoate] | 31.5%
27 | O=C(c1cccc(Nc2c(-c3ccc(Cl)cc3)nc3cnccn23)c1)N1CCOCC1 [P22429, [3-[[2-(4-chlorophenyl)imidazo[1,2-a]pyrazin-3-yl]amino]phenyl]-morpholin-4-ylmethanone] | 24.7%
28 | Fc1ccc(-c2nc3cnccn3c2Nc2ccc(Cl)cc2)cc1 [P37356, N-(4-chlorophenyl)-2-(4-fluorophenyl) imidazo[1,2-a] pyrazin-3-amine] | 3.18%
29 | O=C(O)c1ccc(Nc2c(-c3cccc(Cl)c3)nc3cnccn23)cc1 [P22493, 4-[[2-(3-chlorophenyl)imidazo[1,2-a]pyrazin-3-yl]amino] benzoic acid] | 13.2%
30 | CN(C)c1ccc(-c2nc3cnccn3c2Nc2cccc(C(N)=O)c2)cc1 [P22406, 3-[[2-[4-(dimethyl-amino)phenyl]imidazo [1,2-a]pyrazin-3-yl]amino]benzamide] | 37.2%
31 | COC(=O)c1cccc(Nc2c(-c3ccc(F)cc3)nc3cnccn23)c1 [P37357, methyl 3-[[2-(4-fluorophenyl)imidazo[1,2-a]pyrazin-3-yl]amino] benzoate] | 4.32%
32 | CC(C)NC(=O)c1cccc(Nc2c(-c3ccc(Cl)cc3)nc3cnccn23)c1 [P22407, 3-[[2-(4-chlorophenyl)imidazo[1,2-a]pyrazin-3-yl]amino]-N-propan-2-ylbenzamide] | 32.6%
33 | COc1ccc(-c2nc3cnccn3c2Nc2ccccc2C)cc1OC [P19463, 2-(3,4-dimethoxy-phenyl)-N-(2-methylphenyl)imidazo[1,2-a]pyrazin-3-amine] | 40.7%
34 | CSc1ccc(-c2nc3cnccn3c2Nc2cccc(C(=O)O)c2)cc1 [P37298, 3-[[2-(4-methyl-sulfanylphenyl)imidazo [1,2-a]pyrazin-3-yl]amino]benzoic acid] | 33.6%
35 | CSc1ccc(-c2nc3cnccn3c2Nc2ccc(C(=O)NCc3ccco3)cc2)cc1 [P22465, N-(furan-2-ylmethyl)-4-[[2-(4-methyl-sulfanylphenyl)imidazo [1,2-a]pyrazin-3-yl]amino]benzamide] | 29.6%
36 | O=C(O)c1cccc(Nc2c(-c3ccc([N+](=O)[O-])cc3)nc3cnccn23)c1 [P37328, 3-[[2-(4-nitrophenyl)imidazo[1,2-a]pyrazin-3-yl]amino] benzoic acid] | 17.2%
37 | CCNC(=O)c1ccc(Nc2c(-c3ccc(Cl)cc3)nc3cnccn23)cc1 [P22402, 4-[[2-(4-chlorophenyl)imidazo[1,2-a]pyrazin-3-yl]amino]-N-ethylbenzamide] | 31.3%
38 | CCNC(=O)c1ccc(Nc2c(-c3ccc(OC)c(OC)c3)nc3cnccn23)cc1 [P22410, 4-[[2-(3,4-dimethoxy-phenyl)imidazo[1,2-a]pyrazin-3-yl]amino]-N-ethylbenzamide] | 42.2%
39 | COc1ccc(-c2nc3cnccn3c2Nc2ccc(C(=O)O)cc2)cc1 [P19514, 4-[[2-(4-methoxy-phenyl)imidazo[1,2-a]pyrazin-3-yl]amino] benzoic acid] | 36%
40 | Fc1ccc(-c2nc3cnccn3c2Nc2ccc3c(c2)OCO3)cc1 [P28366, N-(1,3-benzodioxol-5-yl)-2-(4-fluoro-phenyl)imidazo[1,2-a]pyrazin-3-amine] | 36.3%
41 | CCOC(=O)c1ccc(Nc2c(-c3ccc(C(=O)OC)cc3)nc3cnccn23)cc1 [P22521, methyl 4-[3-(4-ethoxy-carbonylanilino)imidazo[1,2-a]pyrazin-2-yl]benzoate] | 22%
42 | COc1ccc(-c2nc3cnccn3c2Nc2ccc(C(C)C)cc2)cc1OC [P19473, 2-(3,4-dimethoxy-phenyl)-N-(4-propan-2-ylphenyl)imidazo [1,2-a]pyrazin-3-amine] | 37.5%
43 | COC(=O)c1ccc(-c2nc3cnccn3c2Nc2ccc(Cl)cc2)cc1 [P19484, methyl 4-[3-(4-chloroanilino)imidazo[1,2-a]pyrazin-2-yl]benzoate] | 42.4%
